The test system of one data set is Aspergillus fumigatus. Description: Antifungal activity against Aspergillus fumigatus ATCC 1028 after 24 to 168 hrs by broth microdilution assay. In kind it is functional. On the technique in general: In broth dilution the organism is exposed to a series of concentrations in liquid medium.
Data set [1] relates to Candida albicans. Kind of data set: Antifungal activity against Candida albicans PTCC 6027 after 24 to 168 hrs by broth microdilution assay. In kind it is functional.
For the next data set, the system named is Cryptococcus neoformans. Description: Antifungal activity against Cryptococcus neoformans IFRC 192 after 24 to 168 hrs by broth microdilution assay. In kind it is functional.
Data set [2] relates to Nakaseomyces glabratus. Description: Antifungal activity against Candida glabrata IFRC 339 after 24 to 168 hrs by broth microdilution assay. In kind it is functional.
Data set [3] has as its system Candida albicans. Kind of data set: Antifungal activity against Candida albicans ATCC 18804 after 24 to 168 hrs by broth microdilution assay. It is filed as functional.
Data set [4] deals with Candida albicans. Kind of data set: Ratio of fluconazole MIC to compound MIC for Candida albicans ATCC 18804. It is filed as functional.
The test system of data set [5] is Candida albicans. Kind of data set: Ratio of fluconazole MIC to compound MIC for Candida albicans PTCC 6027. It is filed as functional.
Data set [6] deals with Nakaseomyces glabratus. Description: Ratio of fluconazole MIC to compound MIC for Candida glabrata IFRC 339. In kind it is functional.
The test system of the next data set is HepG2. Description: Cytotoxicity against human HepG2 cells after 2 days by MTT assay. In kind it is cell-based. As to conditions: HepG2, 48 h. For orientation: Tetrazolium assays rely on reduction of a dye to a coloured formazan, in cell work by metabolically active cells.
Data set [7] is described as follows: Stability of the compound in deuterated DMSO at RT after 2 weeks by 1H-NMR spectroscopy. In kind it is physicochemical. The settings on record: 336 h.
The nature of data set [8]: Stability of the compound in PBS at 0.15 to 6 ug/ml at pH 5.8 to 8 at RT after 2 weeks by UV spectrophotometry. It is filed as physicochemical. As to conditions: buffer, pH 5.8, 336 h.

SMILES strings stand for the structures. Values after ≈ are worked out from the molar mass of the structure shown. A value given as a limit tells only on which side of the number the result lay.

The term MIC denotes the lowest concentration that inhibits growth of the organism. Low readings indicate a more susceptible organism, high ones a less susceptible organism. For orientation: IC50 means the concentration needed to halve the response being measured.

For `OC(CSc1nnc(-c2ccccc2)[nH]1)(Cn1cncn1)c1ccc(F)cc1F` (centres undefined), the minimal inhibitory concentration (MIC) with Aspergillus fumigatus was above 128 µg/mL; in the data set with Candida albicans [1], 8 µg/mL (≈ 19.3 µM); in the data set with Cryptococcus neoformans, above 128 µg/mL; in the data set with Nakaseomyces glabratus [2], 128 µg/mL (≈ 309 µM); in the data set on Candida albicans [3], 0.5 µg/mL (≈ 1.21 µM).

As to `Oc1ccc(-c2nnc(SCC(O)(Cn3cncn3)c3ccc(F)cc3F)[nH]2)cc1` (centres undefined), the MIC is above 128 µg/mL against Aspergillus fumigatus; above 128 µg/mL against Candida albicans [1]; above 128 µg/mL with Cryptococcus neoformans; 128 µg/mL (≈ 297 µM) in the data set on Nakaseomyces glabratus [2]; above 128 µg/mL against Candida albicans [3].

On to `Cc1ccc(-c2nnc(SCC(O)(Cn3cncn3)c3ccc(F)cc3F)[nH]2)cc1` (centres undefined), for which the MIC is above 128 µg/mL in the data set on Aspergillus fumigatus; 2 µg/mL (≈ 4.67 µM) against Candida albicans [1]; above 128 µg/mL in the data set with Cryptococcus neoformans; 128 µg/mL (≈ 299 µM) with Nakaseomyces glabratus [2]; 2 µg/mL (≈ 4.67 µM) in the data set with Candida albicans [3].

Take `COc1ccc(-c2nnc(SCC(O)(Cn3cncn3)c3ccc(F)cc3F)[nH]2)cc1` (centres undefined): the MIC in the data set with Aspergillus fumigatus is above 128 µg/mL; in the data set on Candida albicans [1], 4 µg/mL (≈ 9 µM); against Cryptococcus neoformans it was above 128 µg/mL; against Nakaseomyces glabratus [2], 4 µg/mL (≈ 9 µM); with Candida albicans [3], 2 µg/mL (≈ 4.5 µM).

With `OC(CSc1nnc(-c2ccc(F)cc2)[nH]1)(Cn1cncn1)c1ccc(F)cc1F` (centres undefined), the MIC was above 128 µg/mL against Aspergillus fumigatus; 4 µg/mL (≈ 9.25 µM) in the data set with Candida albicans [1]; above 128 µg/mL in the data set with Cryptococcus neoformans; 4 µg/mL (≈ 9.25 µM) in the data set on Nakaseomyces glabratus [2]; 8 µg/mL (≈ 18.5 µM) against Candida albicans [3].

Take `OC(CSc1nnc(-c2ccc(Cl)cc2)[nH]1)(Cn1cncn1)c1ccc(F)cc1F` (centres undefined): the minimal inhibitory concentration (MIC) is above 128 µg/mL against Aspergillus fumigatus; 1 µg/mL (≈ 2.23 µM) against Candida albicans [1]; above 128 µg/mL against Cryptococcus neoformans; 128 µg/mL (≈ 285 µM) with Nakaseomyces glabratus [2]; 0.5 µg/mL (≈ 1.11 µM) with Candida albicans [3].

Consider `OC(CSc1nnc(-c2cccc(Br)c2)[nH]1)(Cn1cncn1)c1ccc(F)cc1F` (centres undefined), for which the MIC against Aspergillus fumigatus is above 128 µg/mL; in the data set on Candida albicans [1], 8 µg/mL (≈ 16.2 µM); in the data set on Cryptococcus neoformans it was above 128 µg/mL; against Nakaseomyces glabratus [2] it was 128 µg/mL (≈ 259 µM); against Candida albicans [3] it was 8 µg/mL (≈ 16.2 µM).

Take `OC(CSc1nnc(-c2ccc(Cl)cc2Cl)[nH]1)(Cn1cncn1)c1ccc(F)cc1F` (centres undefined): the Ratio worked out at 8 in the data set on Candida albicans [4], 4 with Candida albicans [5] and 4 in the data set with Nakaseomyces glabratus [6]. Moreover, the MIC in the data set on Aspergillus fumigatus is above 128 µg/mL; against Candida albicans [1] it was 0.03 µg/mL (≈ 0.0621 µM); against Cryptococcus neoformans, 64 µg/mL (≈ 132 µM); in the data set on Nakaseomyces glabratus [2] it was 0.25 µg/mL (≈ 0.517 µM); in the data set with Candida albicans [3], 0.5 µg/mL (≈ 1.03 µM). This molecule returned an IC50 in the data set on HepG2 above 250 µg/mL. The Stability result in data set [7] and in data set [8] was “Stable” throughout.

For `OC(CSc1nnc(-c2ccncc2)[nH]1)(Cn1cncn1)c1ccc(F)cc1F` (centres undefined), the MIC in the data set on Aspergillus fumigatus is above 128 µg/mL; against Candida albicans [1], 64 µg/mL (≈ 154 µM); in the data set with Cryptococcus neoformans, above 128 µg/mL; against Nakaseomyces glabratus [2], 128 µg/mL (≈ 308 µM); in the data set with Candida albicans [3], 64 µg/mL (≈ 154 µM).

`OC(CSc1nnc(-c2ccccc2)[nH]1)(Cn1cncn1)c1ccc(Cl)cc1Cl` (centres undefined): the MIC was above 128 µg/mL against Aspergillus fumigatus; 1 µg/mL (≈ 2.24 µM) in the data set with Candida albicans [1]; above 128 µg/mL in the data set with Cryptococcus neoformans; 128 µg/mL (≈ 286 µM) in the data set on Nakaseomyces glabratus [2]; 4 µg/mL (≈ 8.94 µM) in the data set with Candida albicans [3].

On to `Oc1ccc(-c2nnc(SCC(O)(Cn3cncn3)c3ccc(Cl)cc3Cl)[nH]2)cc1` (centres undefined), for which the MIC is above 128 µg/mL against Aspergillus fumigatus; 16 µg/mL (≈ 34.5 µM) with Candida albicans [1]; 128 µg/mL (≈ 276 µM) in the data set with Cryptococcus neoformans; 128 µg/mL (≈ 276 µM) in the data set with Nakaseomyces glabratus [2]; 16 µg/mL (≈ 34.5 µM) against Candida albicans [3].

For `Cc1ccc(-c2nnc(SCC(O)(Cn3cncn3)c3ccc(Cl)cc3Cl)[nH]2)cc1` (centres undefined), the MIC against Aspergillus fumigatus was above 128 µg/mL; against Candida albicans [1] it was 0.125 µg/mL (≈ 0.271 µM); with Cryptococcus neoformans, 128 µg/mL (≈ 277 µM); in the data set on Nakaseomyces glabratus [2] it was 128 µg/mL (≈ 277 µM); in the data set with Candida albicans [3], 1 µg/mL (≈ 2.17 µM).

As to `COc1ccc(-c2nnc(SCC(O)(Cn3cncn3)c3ccc(Cl)cc3Cl)[nH]2)cc1` (centres undefined), the MIC against Aspergillus fumigatus was above 128 µg/mL; against Candida albicans [1] it was above 128 µg/mL; against Cryptococcus neoformans, above 128 µg/mL; against Nakaseomyces glabratus [2], 128 µg/mL (≈ 268 µM); with Candida albicans [3], 32 µg/mL (≈ 67 µM).

For the molecule `OC(CSc1nnc(-c2ccc(F)cc2)[nH]1)(Cn1cncn1)c1ccc(Cl)cc1Cl` (centres undefined), the MIC against Aspergillus fumigatus is above 128 µg/mL; against Candida albicans [1], 0.125 µg/mL (≈ 0.269 µM); in the data set with Cryptococcus neoformans, above 128 µg/mL; against Nakaseomyces glabratus [2] it was 128 µg/mL (≈ 275 µM); with Candida albicans [3], 0.5 µg/mL (≈ 1.07 µM).

`OC(CSc1nnc(-c2ccc(Cl)cc2)[nH]1)(Cn1cncn1)c1ccc(Cl)cc1Cl` (centres undefined): the MIC is above 128 µg/mL with Aspergillus fumigatus; 0.125 µg/mL (≈ 0.259 µM) against Candida albicans [1]; above 128 µg/mL with Cryptococcus neoformans; 128 µg/mL (≈ 266 µM) with Nakaseomyces glabratus [2]; 0.5 µg/mL (≈ 1.04 µM) in the data set on Candida albicans [3].

Take `OC(CSc1nnc(-c2cccc(Br)c2)[nH]1)(Cn1cncn1)c1ccc(Cl)cc1Cl` (centres undefined): in the data set with Candida albicans [4], the Ratio was found to be 8. The MIC against Aspergillus fumigatus is above 128 µg/mL; against Candida albicans [1], 0.06 µg/mL (≈ 0.114 µM); in the data set with Cryptococcus neoformans it was 4 µg/mL (≈ 7.6 µM); against Nakaseomyces glabratus [2], 128 µg/mL (≈ 243 µM); against Candida albicans [3] it was 0.25 µg/mL (≈ 0.475 µM).

Turning to `OC(CSc1nnc(-c2ccc(Cl)cc2Cl)[nH]1)(Cn1cncn1)c1ccc(Cl)cc1Cl` (centres undefined), the Ratio in the data set on Candida albicans [4] turned out to be 25; with Candida albicans [5] it was 4; with Nakaseomyces glabratus [6] it was 4. For the same molecule, the MIC is above 128 µg/mL against Aspergillus fumigatus; below 0.01 µg/mL in the data set with Candida albicans [1]; 32 µg/mL (≈ 62 µM) in the data set on Cryptococcus neoformans; 0.25 µg/mL (≈ 0.484 µM) against Nakaseomyces glabratus [2]; 0.5 µg/mL (≈ 0.969 µM) with Candida albicans [3]. The same molecule gave an IC50 in the data set on HepG2 of 97.1 µg/mL (≈ 188 µM).

Turning to `OC(CSc1nnc(-c2ccncc2)[nH]1)(Cn1cncn1)c1ccc(Cl)cc1Cl` (centres undefined), the MIC in the data set with Aspergillus fumigatus was above 128 µg/mL; with Candida albicans [1], 4 µg/mL (≈ 8.92 µM); in the data set with Cryptococcus neoformans, above 128 µg/mL; with Nakaseomyces glabratus [2] it was 128 µg/mL (≈ 285 µM); in the data set with Candida albicans [3], 8 µg/mL (≈ 17.8 µM).

Turning to `Nn1c(SCC(O)(Cn2cncn2)c2ccc(F)cc2F)nnc1-c1ccc(Cl)cc1Cl` (centres undefined), the MIC with Candida albicans [1] is 16 µg/mL (≈ 32.1 µM).

In the case of `Nn1c(SCC(O)(Cn2cncn2)c2ccc(Cl)cc2Cl)nnc1-c1ccc(Cl)cc1Cl` (centres undefined), it took 8 µg/mL (≈ 15.1 µM) to inhibit growth in the data set with Candida albicans [1] (MIC).

As to `OC(Cn1cncn1)(Cn1cncn1)c1ccc(F)cc1F` [FLUCONAZOLE], the MIC in the data set with Aspergillus fumigatus worked out at 8 µg/mL (≈ 26.1 µM); in the data set on Candida albicans [1], 0.25 µg/mL (≈ 0.816 µM); against Cryptococcus neoformans, 4 µg/mL (≈ 13.1 µM); in the data set on Nakaseomyces glabratus [2] it was 64 µg/mL (≈ 209 µM); with Candida albicans [3], 2 µg/mL (≈ 6.53 µM). In addition, in the data set on HepG2, the IC50 was above 250 µg/mL.

Values taken from ChEMBL document CHEMBL3400134, “Synthesis and biological evaluation of fluconazole analogs with triazole-modified scaffold as potent antifungal agents” (Bioorg Med Chem, 2015).
